# In patent publication US20250041461A1, “[177LU] LUTETIUM-PSMA I&T COMPOSITION AND DOSIMETRY, KIT, METHOD OF MAKING, AND METHOD OF USING THEREOF” (Curium US LLC, priority 2023, published 2025):
# Values joined by “and” are separate entries in the source; they are usually repeats but may differ in a detail not shown here. Equal values may be shown once.
# Columns and labels:
# [1] = Eclipse sub-study, cycle 3 dosimetry (16 patients); format: in vivo, human; conditions: cycle 3, 16 patients
# Method: To evaluate potential changes in the tracer's kinetics and uptake after multiple treatment cycles, 16 of the 27 patients included in the dosimetry sub study, were imaged at both cycle 1 and cycle 3. Among these, at cycle 3, three patients were imaged at all 4 timepoints and the other 13 were imaged at one or two timepoints only (24 h, 48 h or both 24 h and 48 h) (Table 7 in Appendix 1). For these 13 patients, the TACs obtained at cycle 1 were used for each source organ and scaled to the normalized activity value(s) measured at Cycle 3. For patients imaged at two timepoints, the TACs were preferably scaled using the average scaling factor between the two timepoints.
# A subgroup of 16 out of the 27 patients underwent and additional dosimetry assessment at Cycle 3. Among these, three patients had dosimetry performed based on images taken at 4 timepoints, while the remaining patients had dosimetry performed at 1 or 2 imaging timepoints only, as described in Section 4.4.1.
# The organ absorbed radiation doses were compared to the mean organ absorbed radiation doses from Cycle 1 for the same subset of patients, as shown in Table 5. The dosimetry estimations obtained at cycle 3 align closely with those from cycle 1. At this timepoint, the kidneys had the highest dose (0.49±0.19 Gy/GBq) but, for most organs, the estimated absorbed dose values were similar to or lower compared to cycle 1. […]
# [2] = Radiochemical purity of formulated ^177Lu-PSMA I&T solution by HPLC (stability over time); format: physicochemical
# Method: pH was estimated by pH paper. Radioactivity was measured in a dose calibrator. Radiochemical purity was determined by liquid chromatography with radioactivity detection and thin layer chromatography.
# Radiochemical impurities are quantified by chromatographical methods (HPLC and TLC). Radiochemical purity determined by HPLC must not be less than 95.0%
# The radiochemical purity and chemical properties (pH, impurities, visual properties) of [^177Lu]Lu-PSMA I&T in the formulation composition 3 were tested on the seven batches over a time span of 70 to 72 hours from the end-of-synthesis time. Stability samples of typical therapeutic dose radioactivity and volume were stored in different conditions covering typical storage, shipment and usage of the product, including temperatures ranging from +5° C. to +40° C.
# Radiochemical purity of each solution was followed by HPLC up to 71-93 hours post-radiolabeling. All solutions were stored at 22.5° C.
# Sample Analysis: The pH, radioactivity concentration (RAC), PSMA I&T content, and radiochemical purity (RCP) of the formulations were determined using a variety of analytical techniques described in the following sub-sections. A detailed record of the steps performed for each analysis can be found in Attachment 1-4.
# Both the determination of the assay for PSMA I&T and related substances and the RCP of the formulations were determined via HPLC analysis. The system suitability of the instrument was established by triplicate injections of a 15 ppm PSMA I&T standard prior to sample analysis and a single 15 ppm check standard every 10 sample injections. A five-point standard curve of PSMA I&T concentrations between 0.5 and 25 ppm was used to determine the PSMA I&T concentration in the formulations.
# [3] = Plasma PK modelling (gamma counting, bi-exponential fit), cycles 1 and 3; format: in vivo, human
# Method: PK plasma samples were collected at pre-Infusion, 1 h, 4 h, 24 h, 48 h, and 168 h, and counted for radioactivity. Blood samples were first centrifuged to extract plasma, and then the radioactivity in plasma was counted in a gamma counter.
# Whole blood samples were collected as detailed in the protocol Schedule of Events i.e. pre-injection, and then at 1 h, 4 h, 24 h, 48 h, and 168 h post-injection. The samples were first centrifuged to separate plasma, and the radioactivity in the plasma was then measured using a gamma counter. Plasma concentrations were subsequently fitted with a bi-exponential function to derive outcome parameters such as the half-life and clearance rate of the radiopharmaceutical in the plasma.
# Gamma-counted plasma samples were quality controlled using the same ^177Lu reference standard by measuring 0.5 ml of the 100 mL in the saline bag. For each patient, triplicates were made and measured right before all plasma samples were counted. A long-lived isotope was also counted to ensure that the protocol was properly followed by each site. Similarly to the imaging standard, when the gamma counter efficiency factor differed by more than 10% compared to that at site set-up, an investigation was launched to determine the cause of this variation, and if it reflected a difference in data acquisition.
# Plasma data was fitted with a bi-exponential curve.
# Blood samples were obtained for 15 out of 16 patients at cycle 3. Patients 12-004 had blood taken only at the 24 h timepoint and, therefore, was not included in the plasma PK analysis. Consistent with Cycle 1, the time-course of plasma concentrations was similar among the patients. The ranges of PK parameters obtained at cycle 3 were similar to those from Cycle 1 data (Table 6). Cycle 3 PK plasma modeling results (n=15)
# [4] = Cycle 1, patient 42-030 excluded
smiles,measurement,setting,value
"O=C([O-])CC[C@H](NC(=O)N[C@@H](CCCCNC(=O)CCCCCCC(=O)NCCCC[C@@H](NC(=O)[C@@H](Cc1ccccc1)NC(=O)[C@@H](Cc1ccc(O)c(I)c1)NC(=O)CC[C@H](C(=O)[O-])N1CCN(CC(=O)[O-])CCN(CC(=O)[O-])CCN(CC(=O)[O-])CC1)C(=O)[O-])C(=O)[O-])C(=O)[O-].[177Lu+3].[H+].[H+].[H+].[H+].[H+] [^177Lu-PSMA I&T, (3S,7S,26R,29R,32R,37R)-29-benzyl-32-(4-hydroxy-3-iodobenzyl)-5,13,20,28,31,34-hexaoxo-37-(4,7,10-tris(carboxymethyl)-1,4,7,10-tetraazacyclododecan-1-yl)-4,6,12,21,27,30,33-heptaazaheptatriacontane-1,3,7,26,37-pentacarboxylic acid; lutetium-177 (III)]","absorbed dose, kidneys",[1],0.49±0.19 Gy/GBq
same,radiochemical purity by HPLC,"[2]; 10 ml high RAC formulation, 42.5 mg/ml ascorbic acid, 0 hours post EOS",at least 99%
same,radiochemical purity by HPLC,"[2]; 10 ml high RAC formulation, 42.5 mg/ml ascorbic acid, 46 hours post EOS",at least 93.3%
same,radiochemical purity by HPLC,"[2]; 20 ml low RAC formulation, 31 mg/ml ascorbic acid, 0 hours post EOS",at least 99.1%
same,radiochemical purity,"[2]; decreased strength (0.5 GBq/mL), 72 hours post-end-of-synthesis",above 95%
same,radiochemical stability among the formulations of Example 3,[2]; low RAC solution of pH 4.5 and ascorbic acid concentration of 31 mg/ml,highest radiochemical stability
same,Peak Concentration Value,"[3]; Cycle 1, individual patients",0.05 fIA/L (4×) and 0.04 fIA/L and 0.03 fIA/L
same,Time of Peak Concentration,"[3]; Cycle 1, individual patients, time of first post-administration sample",56.00 min and 47.00 min and 53.00 min and 60.00 min (6×) and 51.00 min (2×) and 58.00 min and 61.00 min (2×) and 50.00 min and 63.00 min and 57.00 min and 55.00 min and 52.00 min (2×) and 68.00 min and 71.00 min and 65.00 min and 33.00 min and 40.00 min and 69.00 min
same,"AUC Total, Mean",[3]; [4],22.77 fIA/L × min
same,"AUC Total, max",[3]; [4],37.86 fIA/L × min
same,"AUC Total, median",[3]; [4],20.84 fIA/L × min
same,"AUC Total, min",[3]; [4],3.07 fIA/L × min
same,"Peak Concentration Value, Mean",[3]; [4],0.04 fIA/L
same,"Peak Concentration Value, max",[3]; [4],0.07 fIA/L
same,"Peak Concentration Value, median",[3]; [4],0.04 fIA/L
same,"Peak Concentration Value, min",[3]; [4],0.01 fIA/L
same,Time of Peak Concentration,[3]; [4],33.00 min
same,"Time of Peak Concentration, median",[3]; [4],59.00 min
same,"Vd, Mean",[3]; [4],234.64 L
same,"Vd, max",[3]; [4],1365.03 L
same,"Vd, median",[3]; [4],157.12 L
same,"Vd, min",[3]; [4],54.60 L
same,Time of Peak Concentration,"[3]; cycle 3, max (n=15)",68.00 min
same,Time of Peak Concentration,"[3]; cycle 3, median (n=15)",60.00 min
same,Time of Peak Concentration,"[3]; cycle 3, min (n=15)",55.00 min
